According to article PMC6881072, “The repositioning of epigenetic probes/inhibitors identifies new anti-schistosomal lead compounds and chemotherapeutic targets” (PLoS Neglected Tropical Diseases, 2019):
“Also recorded” adds a separate entry of the source. Like-named read-outs stand apart in the source and are kept apart here.

Experiments:
S. mansoni schistosomula = experiment: In vitro schistosomula screening (Roboworm platform), phenotype and motility; type: cell-based, Schistosoma mansoni; conditions: for EC50: Schistosoma mansoni; for hit / activity against schistosomula, single-point screen: hit cut-offs phenotype -0.15, motility -0.35
Procedure: Briefly, 384-well tissue culture plates (Perkin Elmer, cat 6007460), containing 20 μl of Basch medium, were wet-stamped using a Biomek NX^P liquid handling platform (Beckman Coulter, UK) with negative (0.625% dimethyl sulfoxide, DMSO) and positive controls (AUR and PZQ at 10 μM final concentration in 0.625% DMSO) as well as 37 SGC compounds (at 10 μM final concentration in 0.625% DMSO). […] To each pre-loaded well (single concentration or titration screens), a total of 100–120 mechanically transformed schistosomula (in 60 μl) were deposited via a WellMate (Thermo Scientific, UK). Schistosomula/compound co-cultures (80 μl in total) were then incubated at 37°C for 72 h in a humidified atmosphere containing 5% CO2. At 72 h, tissue culture plates (containing schistosomula/compound co-cultures) were imaged under the same conditions (37°C in a humidified atmosphere containing 5% CO2) using an ImageXpressXL high content imager (Molecular Devices, UK) with subsequent images processed for phenotype and motility as previously reported and successfully implemented by us at Aberystwyth University. Single point schistosomula screens (10 μM) were repeated two or three times whereas dose response titrations were performed once. Zˊ values obtained from all schistosomula screens ranged from 0.27–0.48 (mean = 0.40) for phenotype and 0.41–0.56 (mean = 0.48) for motility.

[1] = HepG2 cell cytotoxicity, MTT assay; type: cell-based, Human; conditions: human, read-out: CC50 (HepG2) (95% Confidence Intervals)
Procedure: Human Hepatocyte Carcinoma (HepG2) cells (Sigma Aldrich, UK) were utilized to assess SGC epigenetic probe cell cytotoxicity in the application of the MTT (3-(4,5-dimethylthiazol-2-yl)-2,5-diphenyltetrazolium bromide) assay. Briefly, cells were passaged at 70–80% confluence and seeded (20,000 cells/ 50 μL per well) in a 96-well, black-sided, clear-bottomed falcon plate (Fisher Scientific, UK) with the final plate column (8 wells) being treated as a blank (media only). Following a 24 h incubation (5% CO2, 37°C, humidified), HepG2 cells were then treated with 50 μL of pre-warmed media (37°C) containing SGC EPs/EIs at 200 μM to 0.02 μM (final concentration 100 μM, 10 μM, 1 μM, 0.1 μM and 0.01 μM). Three positive (1% Triton X-100) and negative (1% DMSO) control wells per plate were additionally included.
After addition of compounds, each plate was then incubated for a further 20 h before application of MTT for assessment of overt compound cytotoxicity using the MTT assay. The MTT assay was read using the POLARstar Omega (BMG LabTech, UK) plate reader at an absorbance of 570 nm. CC50s were calculated in GraphPad Prism.

[2] = tested on: adult male and female schistosome pairs; experiment: In vitro adult schistosome screening (WHO/TDR motility, egg counts); type: cell-based, Schistosoma mansoni; conditions: for EC50: Schistosoma mansoni, 72 h
Procedure: In vitro screening was replicated three times on different dates to account for any biological variation. Briefly three adult worm pairs/well (48-well tissue culture plate format) were placed into DMEM (Gibco, Paisley, UK) supplemented with 10% (v/v) FCS (Gibco, Paisley, UK), 1% (v/v) L-glutamine (Gibco, Paisley, UK) and an antibiotic mixture (150 Units/ml penicillin and 150 μg/ml streptomycin; Gibco, UK). DMSO (0.5% negative control), AUR (10 μM concentration in 0.5% DMSO; positive control) and two-fold titrations of SGC compounds (50 μM– 6.25 μM or 50 μM– 0.05 μM; in 0.5% DMSO max) were added, and together, these adult worm/compound co-cultures were incubated at 37°C for 72 h in a humidified atmosphere containing 5% CO2. Following compound incubation, WHO/TDR readouts of adult worm motility, abundance of H3K36me2 (LLY-507 and BAY-598 treated worms only) in histone extracts and egg counts/well were recorded at 72 h.

[3] = CC50 HepG2 / schistosomula motility EC50
[4] = CC50 HepG2 / schistosomula phenotype EC50
[5] = 72 h, two-fold titration 10 μM–0.625 μM, single replicate, approximate, read-out: SCHISTOSOMULA EC50 Motility
[6] = 72 h, two-fold titration 10 μM–0.625 μM, single replicate, approximate, read-out: SCHISTOSOMULA EC50 Phenotype
[7] = motility, adult females, read-out: ADULT EC50 (95% Confidence Intervals) Females
[8] = motility, adult males, read-out: ADULT EC50 (95% Confidence Intervals) Males
[9] = 72 h, read-out: SCHISTOSOMULA EC50 Motility
[10] = 72 h, read-out: SCHISTOSOMULA EC50 Phenotype
[11] = read-out: ADULT EC50 (95% Confidence Intervals) Females
[12] = read-out: ADULT EC50 (95% Confidence Intervals) Males

Row | SMILES | SELECTIVITY INDEX Schistosomula Motility (S. mansoni schistosomula; [3]) | SELECTIVITY INDEX Schistosomula Phenotype (S. mansoni schistosomula; [4]) | EC50 (S. mansoni schistosomula; [5]) [µM] | EC50 (S. mansoni schistosomula; [6]) [µM] | CC50 at 20 h ([1]; HepG2 cells) [µM] | SELECTIVITY INDEX Adult Females ([2]; CC50 HepG2 / adult female EC50) | SELECTIVITY INDEX Adult Males ([2]; CC50 HepG2 / adult male EC50) | EC50 [2, 7] [µM] | EC50 [2, 8] [µM] | hit / activity against schistosomula, single-point screen (S. mansoni schistosomula; 10 μM, 72 h) | other results
1 | CCn1cc(-c2cccc(C(F)(F)F)c2)c2sc(C(=N)NC3CCS(=O)(=O)CC3)cc2c1=O [I-BRD9, N-(1,1-dioxidotetrahydro-2H-thiopyran-4-yl)-5-ethyl-4-oxo-7-(3-(trifluoromethyl)phenyl)-4,5-dihydrothieno[3,2-c]pyridine-2-carboximidamide] | 7.61 | 24.44 | 4.13 | 1.29 | 31.4 | 1.31 | 1.10 | 24 | 28.5 |  | 
2 | CCCS(=O)(=O)c1nc(NC2CC2)cc(-c2ccc3c(ccn3C3CC(C)(C)NC(C)(C)C3)c2)n1 [NVS-CECR2-1, N-cyclopropyl-2-propylsulfonyl-6-[1-(2,2,6,6-tetramethylpiperidin-4-yl)indol-5-yl]pyrimidin-4-amine] | 3.60 | 4.98 |  |  |  | 1.73 | 3.11 |  |  |  | schistosomula phenotype by microscopic assessment (S. mansoni schistosomula; 10 μM, 72 h): phenotypes comparable to auranofin; EC50 (S. mansoni schistosomula; [9]): 2.5 µM; EC50 (S. mansoni schistosomula; [10]): 1.81 µM; CC50 at 20 h [1]: 9.03 µM; EC50 [2, 11]: 5.21 µM; EC50 [2, 12]: 2.9 µM
3 | Clc1cc2c(NC3CCCC3)nnc(-c3ccncc3)c2cc1Cl [A-196, 8,9-dichloro-N-cyclopentyl-5-(pyridin-4-yl)-3,4-diaza-bicyclo[4.4.0]deca-1(10),2,4,6,8-pentaen-2-amine] | 10.45 | 36.00 | 4.78 | 1.39 | > 50 | 3.13 | 2.24 | 16 | 22.3 |  | 
4 | CC(C)Oc1ccc(-c2c[nH]cc2CN(C)CCN)cc1 [MS023, 3-(((2-amino-ethyl)-methyl-amino)-methyl)-4-(4-(1-methyl-ethoxy)-phenyl)-1H-pyrrole] | 2.52 | 4.14 | 6.45 | 3.92 | 16.2 | 0.62 | 0.62 | 26.3 | 26.2 |  | 
5 | CCC(=O)N1CCOc2c(cc(-c3ccc(OC)c(OC)c3)cc2OC[C@H]2CCCN(C)C2)C1 [I-CBP112, 1-[7-(3,4-dimethoxyphenyl)-9-{[(3S)-1-methylpiperidin-3-yl]methoxy}-2,3,4,5-tetrahydro-1,4-benzoxazepin-4-yl]propan-1-one] |  |  |  |  |  |  |  |  |  | did not | 
6 | CCN(C(=O)CO)C1CN(C(=Nc2cccc(OC(F)F)c2)NC#N)N=C1c1ccccc1 (stereo not drawn) [BAY-369] |  |  |  |  |  |  |  |  |  | None of these chemotype controls demonstrated anti-schistosomula activity; also recorded: is not | 
7 | CC(=O)Nc1ccc(C(=O)Nc2ccccc2N)cc1 [CI-994] |  |  |  |  |  |  |  |  |  | non-hit | 
8 | Cc1sc2c(c1C)C(c1ccc(Cl)cc1)=N[C@@H](CC(=O)OC(C)(C)C)c1nnc(C)n1-2 [JQ1, [(S)-4-(4-Chloro-phenyl)-2,3,9-trimethyl-6H-1-thia-5,7,8,9a-tetraaza-cyclopenta[e]azulen-6-yl]-acetic acid tert-butyl este] | 5.53 | 3.56 |  |  |  | 0.73 | 0.92 |  |  |  | EC50 (S. mansoni schistosomula; [9]): 3.04 µM; EC50 (S. mansoni schistosomula; [10]): 4.72 µM; CC50 at 20 h [1]: 16.8 µM; EC50 [2, 11]: 22.8 µM; EC50 [2, 12]: 18.3 µM
9 | CCOC(=O)CCNc1cc(N2CCc3ccccc3CC2)nc(-c2cccnc2)n1 [GSKJ5] |  |  |  |  |  |  |  |  |  | None of these chemotype controls demonstrated anti-schistosomula activity | 
10 | CCCc1cc(C)[nH]c(=O)c1CNC(=O)c1cc(-c2ccc(N3CCN(C(C)C)CC3)nc2)cc2c1cnn2C(C)C [UNC1999, N-[(6-methyl-2-oxo-4-propyl-1,2-dihydropyridin-3-yl)methyl]-1-(propan-2-yl)-6-{6-[4-(propan-2-yl)piperazin-1-yl]pyridin-3-yl}-1H-indazole-4-carboxamide] | 11.16 | 7.48 | 2.82 | 4.2 | 31.4 | 1.95 | 2.32 | 16.1 | 13.5 | are hits against schistosomula | 
11 | COc1ccc(CCc2nc3cc(-c4c(C)noc4C)ccc3n2CC(C)N2CCOCC2)cc1Cl (stereo not drawn) [SGC-CBP30, 8-(3-chloro-4-methoxy-phenethyl)-4-(3,5-dimethyl-isoxazol-4-yl)-9-(2-(morpholin-4-yl)-propyl)-7,9-diaza-bicyclo[4.3.0]nona-1(6),2,4,7-tetraene] |  |  | 4.99 | 3.19 | > 50 |  |  | 31.2 | 33.5 | demonstrated activity against schistosomula | S[…] Schistosomula Motility (S. mansoni schistosomula; [3]): 10.03; S[…] Schistosomula Phenotype (S. mansoni schistosomula; [4]): 15.69; S[…] Adult Females ([2]; CC50 HepG2 / adult female EC50): 1.6; S[…] Adult Males ([2]; CC50 HepG2 / adult male EC50): 1.49
12 | O=C(/C=C/c1ccc(CN(CCO)CCc2c[nH]c3ccccc23)cc1)NO [LAQ824] | 6.40 | 7.04 | 2.45 | 2.22 | 15.6 | 0.95 | 0.63 | 16.5 | 25 | hit | 
13 | CCCc1cc(C)n(C)c(=O)c1CN(C)C(=O)c1cc(-c2ccc(N3CCN(C(C)C)CC3)nc2)cc2c1cnn2C(C)C [UNC2400] |  |  |  |  |  |  |  |  |  | None of these chemotype controls demonstrated anti-schistosomula activity | 
